“Also recorded” adds a separate entry of the source. Where a SMILES comes first, the peptide text is derived from it. Bridges are numbered along the chain shown (N, C = ends). [ ]: non-standard residue; d: D form. hArg = N=C(N)NCCCC[C@H](N)C(=O)O; Mpa = O=C(O)CCS
Columns and labels:
WT mice = assay: FeCl3-induced carotid arterial thrombosis; assay type: in vivo, mouse; details: 5 μg/g BW, vs vehicle control
Experimental: FIG. […]) is an exemplary embodiment of B12-5 having an antithrombotic effect without prolonging tail bleeding times in mice in accordance with the present disclosure. FIG. […]): Ex vivo effects of B12-5. Wild type (WT; […] One hour later, blood was drawn, followed by isolating platelets. P-selectin exposure (FIG. 19A) and αIIbβ3 integrin activation (FIG. 19B) were assessed in flow cytometry. FIG. 19C: Platelet aggregation was measured after treatment with 0.025 U/mL thrombin. The data represent the mean±SD (n=4). FIG. 19D: The plasma levels of B12-5 were analyzed by liquid chromatography-tandem mass spectrometry (LC-MS/MS) after intravenous injection of the compound (5 μg/g BW) into WT mice and quantified by comparison with a standard curve of B12-5 (mean±SD, n=3). FIG. 19E and FIG. 19F: After laser-induced cremaster arteriolar injury, intravital microscopy was conducted with WT mice pretreated with intravenous injection of saline, eptifibatide (5 μg/g BW), vehicle, or B12-5 (5 μg/g BW). The median integrated fluorescence intensities of anti-CD42c (F platelet) and anti-fibrin (F fibrin) antibodies (n=37-42 arterioles in 6 mice per group). Quantification of the antibody signal at a different time point after laser injury. FIG. 19G: Comparison of B12-5 (5 μg/g BW) with eptifibatide (5 μg/g BW) and their respective controls in inhibiting FeCl3-induced carotid artery thrombosis in WT mice. FIG. 19H and FIG. 19I: WT mice were treated with intravenous injection of vehicle control, eptifibatide (5 μg/g BW), or B12-5 (5 μg/g BW). Thirty minutes later, tail bleeding times and Hb contents were measured after amputation of the tail tip. […] Twenty-three hours later, neurological deficits were assessed by the Bederson score and grip test, and infarct volume was measured as described in Methods. […] Twenty-three hours later, the neurological deficit and infarct volume were measured as described above. […] P values determined by unpaired Student t test (FIG. […]), FIG. 19K, and FIG. 19O) or Mann-Whitney U test (FIG. 19(E-1), FIG. 19L, FIG. 19M, FIG. 19P, and FIG. 19Q). […]

WT (C57BL/6) mice = assay: Intravital microscopy, laser-induced cremaster arteriolar injury, WT mice; assay type: in vivo, mouse; details: iv 5 μg/g BW
Experimental: Intravital microscopy was performed in a mouse model of laser-induced cremaster arteriolar injury as previously described. WT (C57BL/6), littermate WT control, and CKO and KO male mice (8-10 weeks old) were anesthetized with intraperitoneal injection of ketamine and xylazine. The cremaster muscle was exteriorized and superfused with 37° C. bicarbonate-buffered saline throughout the experiment. Arteriolar wall injury was induced by laser ablation (Photonics Instruments) as previously described. Multiple thrombi were generated in at least 3 to 4 different arterioles of 1 mouse, with new thrombi formed upstream of earlier thrombi to minimize any contribution from thrombi generated earlier in the mouse. Platelets and fibrin were visualized by infusion of DyLight 649-conjugated anti-CD42c (0.2 μg/g body weight [BW]) and Alexa Fluor 488-conjugated anti-fibrin (0.2 μg/g BW) antibodies, respectively. To detect extracellular Ero1α, Alexa Fluor 488-conjugated rabbit IgG or nonblocking anti-ERO1α antibodies (0.3 μg/g BW) were injected into WT (C57BL/6), WT control, Ero1α KO, and Ero1α CKO mice. In some experiments, wtERO1α or activity-null ERO1α-Cys94Ser (mutant ERO1α [mERO1α]; 4 μg/g BW) was infused into Ero1α KO mice before imaging. To test the effect of ERO1α inhibitors or blocking anti-ERO1α antibodies, WT (C57BL/6) mice were treated with intravenous injection of vehicle control, eptifibatide (5 μg/g BW), B12-5 (5 μg/g BW), isotype control IgGs, anti-ERO1α (15E9, 1-3 μg/g BW), or anti-PDI (BD34, 3 μg/g BW) 3 minutes before treatment with the anti-CD42c and anti-fibrin antibodies. The same dose of eptifibatide was injected every 20 minutes to maintain the inhibitory effect. […] Fluorescence and bright-field images were captured in 6 to 10 different cremaster arterioles with a diameter of 30 to 45 μm in each mouse and recorded using either an Olympus BX61W microscope with a 60×1.0 salt water immersion objective or a Zeiss Axio Examiner Z1 microscope system with a Yokogawa confocal spinning disk (CSU-W1) equipped with 4 stack laser system (405-, 488-, 561-, and 637-nm wavelengths). Images were collected with a high-speed, high-resolution camera (2304×2304 pixel format; ORCA-Fusion BT sCMOS, Hamamatsu). Time 0 was set to when image capture began on each vessel. The data were analyzed using Slidebook (version 6.0; Intelligent Imaging Innovations). Due to the significant variation between vessels in the same mouse, the result from each vessel was counted as an individual value. Representative images were chosen that most closely resemble the mean values in the quantifications.

N=C(N)NCCCC[C@@H]1NC(=O)CCSSC[C@@H](C(N)=O)NC(=O)[C@@H]2CCCN2C(=O)[C@H](Cc2c[nH]c3ccccc23)NC(=O)[C@H](CC(=O)O)NC(=O)CNC1=O [eptifibatide, reference compound] ([Mpa][hArg]GDWPC-NH2; disulfide 1-7)
time to occlusion (WT mice): significantly prolonged
fibrin generation (WT (C57BL/6) mice): without reducing; also recorded: without affecting
platelet thrombus formation (WT (C57BL/6) mice): inhibit

— patent US20240366624A1, “METHODS AND COMPOSITIONS FOR TREATING THROMBOTIC DISEASE” (Washington University, priority 2023, published 2024)
